Measured values published in patent US9408803B2, “Compositions containing lignan-class compounds” (SUNTORY HOLDINGS LIMITED, priority 2006, dated 2016).

Key:
[1] = Solubility test in fats or oils (crystal formation after standing overnight at room temperature); assay type: physicochemical
Text: Three samples were used and they included not only a mixture of sesamin and episesamin (sesamin:episesamin=51.1:48.2) but also sesamin and episesamin that were individually purified from the mixture. The wheat germ oil was a product of RIKEN VITAMIN CO., LTD.; the olive oil was a product of nakalai tesque; used as middle-chain fatty acids (MCTs) were ACTOR M-1 (a triglyceride of middle-chain fatty acid with C8:C10:C12=56:42:2) and ACTOR M-2 (a triglyceride of C8 middle-chain fatty acid), both being products of RIKEN VITAMIN CO., LTD. The diacylglycerol was a commercial fat or oil (Econa Cooking Oil of KAO CORPORATION, an edible oil containing about 80% diacylglycerol).
Into test tubes, there were weighed 2 g of the respective fats or oils and various concentrations of the samples that increased from 0.5 to 10% (by weight) by an increment of 0.25%. Then, the test tubes were heated to 120° C. so that sesamin completely dissolved in the fats or oils. Thereafter, the test tubes were allowed to stand overnight at room temperature to examine whether crystals would be formed or not.

[2] = parameters: species or system rats; conditions: rat, in vivo
Text: It may well be said that a preferred mode of ingesting sesamin and/or episesamin is by dissolving them in fat or oil; however, sesamin and/or episesamin is only slightly soluble and has such low solubility in fat or oil (wheat germ oil) that not only is it difficult to incorporate them at high concentrations but, at the same time, even if they are incorporated at low concentrations, a crystal may precipitate during storage on account of their low storage stability. This crystal precipitation can potentially result in lowered absorbability, so considering the storage stability, there has been no alternative to incorporating them at concentrations considerably lower than their solubility in fat or oil (wheat germ oil). Under these circumstances, when one made an attempt to increase the dose of sesamin and/or episesamin that could be ingested at a time, the amount of the solvent fat or oil also had to be increased, inevitably resulting in an excessive calorie intake. In addition, the volume of the sesamin and/or episesamin containing composition that is prescribed becomes so large per unit dosage or their quantities to be ingested become so large that inconveniences in ingestion have occasionally occurred. […]

[3] = test system: β-oxidation enzymes in the liver; conditions: as compared with sesamin; cited from earlier work

| Structure (SMILES) | factor of solubility improvement over wheat germ oil [1] | bodily absorption, solution in fat or oil vs suspension in water [2] | gene expression and enzymatic activity of β-oxidation enzymes in the liver [3] |
| --- | --- | --- | --- |
| c1cc2c(cc1[C@H]1OC[C@H]3[C@@H]1CO[C@@H]3c1ccc3c(c1)OCO3)OCO2 [Episesamin, episesamin] | 2.5-5.5 | significantly superior in bodily absorption | markedly increasing |
| c1cc2c(cc1[C@H]1OC[C@H]3[C@@H]1CO[C@@H]3c1ccc3c(c1)OCO3)OCO2 [Sesamin, sesamin] | 2.5-5.5 | significantly superior in bodily absorption | – |
